Assay [1] has as its system Colo-205. As to the kind of experiment: In vitro tumor cell proliferation, Colo-205. It is filed as cell-based. To be noted: values given with an undefined *, read-out: In vitro Tumor Cell Proliferation (IC50, μM) Colon Colo-205. In a few lines:
(§1)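 Two read-outs were used: sulforhodamine B after 3 + 4 days of drug with re-dosing at medium change, or CyQUANT after 3 days of drug and freezing of plates at −80° C for at least 30 minutes.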

Assay [2] deals with T1, cdk4/cyclin D1 (Homo sapiens, UniProt P11802).
T1 construct: made in house; host or cells: Sf9 insect cells (Bac-to-Bac baculovirus, pFastBac)
The assay can be described thus: Cyclin-dependent Kinase 4 Assay (cdk4/cyclin D1, GST-Rb substrate). It is filed as biochemical. To be noted: cdk4/cyclin D1 insect cell lysate, 10 μM ATP, 30 min at 37° C., several values = separate determinations, read-out: CDK4 Inhibition IC50. The gist of the method:
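IC50 against cdk4 measured by scintillation counting of bead-bound GST-Rb (0.5 μg) after filtration and four TNEN washes. Reaction was 30 min at 37 °C in HEPES pH 7.5 buffer with 10 mM MgCl2 and 1 mM EGTA. Enzyme source was 0.1 μg Sf9 lysate coinfected with cdk4 and cyclin D1.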

The subject of assay [3] is PC-3. As to the kind of experiment: In vitro tumor cell proliferation, PC-3. It is filed as cell-based, human. The settings on record: many values given with an undefined *, read-out: In vitro Tumor Cell Proliferation (IC50, μM) Prostate PC-3. The gist of the method: as §1
Assay [4] has as its system MDA-MB-435. The assay can be described thus: In vitro tumor cell proliferation, MDA-MB-435. It counts as cell-based. To be noted: values given with an undefined *, read-out: In vitro Tumor Cell Proliferation (IC50, μM) Breast MDA-MB-435. The gist of the method:
as §1

The test system of assay [5] is MDA-MB-231. As to the kind of experiment: In vitro tumor cell proliferation, MDA-MB-231. It is filed as cell-based, human. To be noted: sulforhodamine B or CyQUANT assay, many values given with an undefined *, read-out: In vitro Tumor Cell Proliferation (IC50, μM) Breast MDA-MB-231. In a few lines:
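Proliferation quantified by SRB staining of TCA-fixed cells after 3 days of drug plus 4 days with replenished drug, following overnight attachment at 37 °C.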

The subject of assay [6] is DU145. The assay can be described thus: In vitro tumor cell proliferation, DU145. To be noted: many values given with an undefined *, read-out: In vitro Tumor Cell Proliferation (IC50, μM) Prostate DU145. It counts as cell-based, human. In a few lines:
as §1

In assay [7] the test system is A549. As to the kind of experiment: In vitro tumor cell proliferation, A549. To be noted: many values given with an undefined *, read-out: In vitro Tumor Cell Proliferation (IC50, μM) Lung A549. It is filed as cell-based, human. In a few lines:
as §1

For assay [8], the system named is HT-29. The assay can be described thus: In vitro tumor cell proliferation, HT-29. It counts as cell-based, human. To be noted: many values given with an undefined *, read-out: In vitro Tumor Cell Proliferation (IC50, μM) Colon HT-29. The gist of the method: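 Growth was quantified either with CyQUANT, plates frozen at −80° C after 3 days of drug, or by sulforhodamine B staining of TCA-fixed cells after 3 days of drug plus 4 days with fresh drug. Trypan blue-excluding HT-29 cells were plated overnight at 37° C before dosing.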

Assay [9] has as its target T2, cdk2/cyclin E (Homo sapiens, UniProt P24941).
T2 construct: made in house; host or cells: insect cells (baculovirus co-infection)
The assay can be described thus: Cyclin-Dependent Kinase 2 Assay (cdk2/cyclin E, GST-Rb substrate). It counts as biochemical. To be noted: recombinant cdk2/cyclin E, 10 μM ATP, 30 min at 30° C., several values in a cell = separate determinations, read-out: CDK-2 Inhibition IC50. The procedure:
Substrate: GST-Rb as described above for cdk4/cyclin D1
Assay conditions for cdk2/cyclin E were identical to those for cdk4/cyclin D1 including the substrate. The concentration of recombinant cdk2/cyclin E in the assay was 0.1 μg per 100 μl assay. Incubation was for 30 min at 30° C.

The test system of assay [10] is DMS-114. The assay can be described thus: In vitro tumor cell proliferation, DMS-114. To be noted: many values given with an undefined *, read-out: In vitro Tumor Cell Proliferation (IC50, μM) Lung DMS-114. It is filed as cell-based, human. In a few lines:
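Human small cell lung carcinoma DMS-114 cells plated overnight, then drug-treated for 3 days, medium and drug renewed, and incubated 4 more days. Growth read by sulforhodamine B staining after TCA fixation; alternatively by CyQUANT after 3 days' drug exposure and freezing at −80 °C.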

The mark [11] stands for this setting: Homo sapiens, COLO 205, Colo-205.
[12] abbreviates: Homo sapiens, MDA-MB-435, MDA-MB-435.
Where [13] appears, read: Homo sapiens, MDA-MB-231, MDA-MB-231.

This passage reports IC50 results from patent publication US6479487B1, “6, 9-disubstituted 2-[trans-(4-aminocyclohexyl)amino] purines” (Aventis Pharmaceuticals Inc., priority 1998, dated 2002).

Molecules are shown by their SMILES. Values joined by “and” are separate entries in the source; they are usually repeats but may differ in a detail not shown here. Equal values may be shown once. Where a name gives a salt, the structure may show the parent alone. Read-outs that look alike come from different tables or passages of the source.

T1 sequence (P11802 whole entry): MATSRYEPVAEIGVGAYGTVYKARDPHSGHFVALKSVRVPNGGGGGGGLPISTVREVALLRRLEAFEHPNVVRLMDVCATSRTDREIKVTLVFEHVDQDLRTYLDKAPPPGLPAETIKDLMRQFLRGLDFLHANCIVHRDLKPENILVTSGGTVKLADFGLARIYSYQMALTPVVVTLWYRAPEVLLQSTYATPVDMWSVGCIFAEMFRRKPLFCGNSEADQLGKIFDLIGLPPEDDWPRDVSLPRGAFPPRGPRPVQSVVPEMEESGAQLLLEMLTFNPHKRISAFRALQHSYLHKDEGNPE
T1 sequence (P24385 whole entry partner): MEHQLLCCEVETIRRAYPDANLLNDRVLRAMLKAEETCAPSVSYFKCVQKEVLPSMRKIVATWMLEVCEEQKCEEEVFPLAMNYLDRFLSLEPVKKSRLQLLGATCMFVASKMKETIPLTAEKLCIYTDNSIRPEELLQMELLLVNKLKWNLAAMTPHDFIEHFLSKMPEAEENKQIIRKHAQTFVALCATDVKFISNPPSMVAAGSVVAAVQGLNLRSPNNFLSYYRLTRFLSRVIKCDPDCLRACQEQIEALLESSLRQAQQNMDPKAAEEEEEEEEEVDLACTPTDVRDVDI

`COc1ccc(CNc2nc(N[C@H]3CC[C@H](N)CC3)nc3c2ncn3C(C)C)cc1` [Example 37, 2-[Trans-(4-aminocyclohexyl)amino]-6-[(4-methoxybenzyl)amino]-9-(2-propyl)purine dihydrochloride]: the IC50 in assay [1] (Colo-205, dihydrochloride) was 1.6 µM and 1.3 µM; in assay [1] (setting [11]), 1.7 µM; in assay [2] it was 5200 nM; in [3] (Homo sapiens, PC-3, PC-3), 2.3 µM; in assay [3] (PC-3, dihydrochloride) it was 2.8 µM and 2.5 µM; in assay [4] (setting [12]) it was 3.4 µM. The IC50 was 3.2 µM and 2.7 µM in assay [4] (MDA-MB-435, dihydrochloride); 3 µM in assay [5] (setting [13]); 2.6 µM and 3 µM in [6] (DU145, dihydrochloride); 2.7 µM in assay [6] (Homo sapiens, DU-145, DU145); 1.3 µM in [7] (Homo sapiens, A549, A549); 1.8 µM and 2.5 µM in assay [8] (HT-29, dihydrochloride). Moreover, the IC50 in [8] (Homo sapiens, HT-29, HT-29) was 3.2 µM; in assay [9], 690 nM; in [10] (DMS-114, dihydrochloride) it was 1.7 µM and 1.5 µM; in [10] (Homo sapiens, DMS-114, DMS-114) it was 1.3 µM.

`N[C@H]1CC[C@H](Nc2nc(NC3CCN(Cc4ccc(Cl)cc4Cl)CC3)c3ncn(C4CCCC4)c3n2)CC1` [Example 147-x, 2-[Trans-(4-aminocyclohexyl)amino]-6-[4-[1-(2,4-dichlorobenzyl)]piperidinylamino]-9-cyclopentylpurine trihydrochloride]: the IC50 in [1] (Colo-205, trihydrochloride) is 0.62 µM; in assay [1] (setting [11]), 0.59 µM; in assay [2] it was 3800 nM and 3900 nM; in [3] (Homo sapiens, PC-3, PC-3), 0.54 µM; in assay [3] (PC-3, trihydrochloride), 0.65 µM; in [4] (setting [12]), 0.75 µM. In addition, the IC50 in [4] (MDA-MB-435, trihydrochloride) came to 0.92 µM; in assay [5] (setting [13]) it was 0.85 µM; in [5] (MDA-MB-231, trihydrochloride) it was 0.67 µM; in assay [6] (DU145, trihydrochloride), 0.53 µM; in assay [6] (Homo sapiens, DU-145, DU145), 0.49 µM; in assay [7] (A549, trihydrochloride), 0.45 µM. For the same compound, the IC50 in [7] (Homo sapiens, A549, A549) was determined as 0.44 µM; in [8] (HT-29, trihydrochloride) it was 0.6 µM; in assay [8] (Homo sapiens, HT-29, HT-29), 0.72 µM; in assay [9] it was 320 nM; in assay [10] (DMS-114, trihydrochloride), 0.7 µM; in assay [10] (Homo sapiens, DMS-114, DMS-114) it was 1 µM.

Regarding `COCCCCNc1nc(N[C@H]2CC[C@H](N)CC2)nc2c1ncn2C1CCCC1` [Example 29, 2-[Trans-(4-aminocyclohexyl)amino]-6-(4-methoxybutylamino)-9-cyclopentylpurine dihydrochloride], the IC50 in [1] (Colo-205, dihydrochloride) is 4.6 µM; in assay [1] (setting [11]), 2.8 µM; in [2] it was 1000 nM and 710 nM; in assay [3] (Homo sapiens, PC-3, PC-3), 3.2 µM; in assay [3] (PC-3, dihydrochloride) it was 3.5 µM; in assay [4] (setting [12]) it was 5.9 µM. For the same compound, the IC50 was determined as 6 µM in [4] (MDA-MB-435, dihydrochloride); 4.2 µM in assay [5] (setting [13]); 3.6 µM in [5] (MDA-MB-231, dihydrochloride); 2.9 µM in [6] (DU145, dihydrochloride); 3 µM in assay [6] (Homo sapiens, DU-145, DU145); 2.6 µM in assay [7] (A549, dihydrochloride). In addition, the IC50 in [7] (Homo sapiens, A549, A549) is 2.9 µM; in [8] (HT-29, dihydrochloride) it was 4.2 µM; in assay [8] (Homo sapiens, HT-29, HT-29), 4.4 µM; in [9], 11 nM and 40 nM; in [10] (DMS-114, dihydrochloride) it was 3.3 µM; in assay [10] (Homo sapiens, DMS-114, DMS-114), 2.6 µM.

Turning to `N[C@H]1CC[C@H](Nc2nc(NC3CCN(Cc4cccc(Oc5ccccc5)c4)CC3)c3ncn(C4CCCC4)c3n2)CC1` [Example 147-ad, 2-[Trans-(4-aminocyclohexyl)amino]-6-[4-[1-(3-phenoxybenzyl)]piperidinylamino]-9-cyclopentylpurine trihydrochloride], the IC50 was 0.58 µM in assay [1] (Colo-205, trihydrochloride); 0.53 µM in [1] (setting [11]); 3000 nM and 3200 nM in assay [2]; 0.48 µM in assay [3] (Homo sapiens, PC-3, PC-3); 0.86 µM in assay [3] (PC-3, trihydrochloride); 0.87 µM in assay [4] (setting [12]). In addition, the IC50 in assay [4] (MDA-MB-435, trihydrochloride) amounted to 1 µM; in assay [5] (setting [13]), 0.64 µM; in [6] (DU145, trihydrochloride), 0.62 µM; in assay [6] (Homo sapiens, DU-145, DU145), 0.54 µM; in assay [7] (A549, trihydrochloride) it was 0.43 µM; in assay [7] (Homo sapiens, A549, A549) it was 0.39 µM. The IC50 in assay [8] (HT-29, trihydrochloride) was 0.7 µM; in [8] (Homo sapiens, HT-29, HT-29), 0.79 µM; in [9] it was 280 nM and 190 nM; in assay [10] (DMS-114, trihydrochloride), 0.62 µM; in [10] (Homo sapiens, DMS-114, DMS-114), 0.82 µM.

Regarding `N[C@H]1CC[C@H](Nc2nc(N[C@H]3CC[C@H](O)CC3)c3ncn(C4CCCC4)c3n2)CC1` [Example 145a, Trans-2-[Trans-(4-aminocyclohexyl)amino]-6-[(4-hydroxy)cyclohexylamino]-9-cyclopentylpurine dihydrochloride], the IC50 in [1] (Colo-205, dihydrochloride) is 1.6 µM; in assay [1] (setting [11]), 1.7 µM; in assay [2], 1500 nM and 1600 nM; in [3] (Homo sapiens, PC-3, PC-3) it was 1.9 µM; in assay [3] (PC-3, dihydrochloride), 2.1 µM; in [4] (setting [12]) it was 3.3 µM. Further, the IC50 in assay [4] (MDA-MB-435, dihydrochloride) amounted to 3.8 µM; in assay [5] (setting [13]), 3 µM; in assay [5] (MDA-MB-231, dihydrochloride), 2.9 µM; in assay [6] (DU145, dihydrochloride), 3.8 µM; in assay [6] (Homo sapiens, DU-145, DU145), 3.9 µM; in [7] (A549, dihydrochloride), 4.8 µM. In addition, the IC50 is 4.4 µM in assay [7] (Homo sapiens, A549, A549); 2.3 µM in assay [8] (HT-29, dihydrochloride); 3.4 µM in [8] (Homo sapiens, HT-29, HT-29); 50 nM in assay [9]; 3.1 µM in assay [10] (DMS-114, dihydrochloride); 4.6 µM in assay [10] (Homo sapiens, DMS-114, DMS-114).

`N[C@H]1CC[C@H](Nc2nc(NCC3CCN(Cc4ccccc4)CC3)c3ncn(C4CCCC4)c3n2)CC1` [Example 147-ac, 2-[Trans-(4-aminocyclohexyl)amino]-6-[4-(1-benzyl)piperidinylmethylamino]-9-cyclopentylpurine trihydrochloride]: the IC50 in assay [1] (Colo-205, trihydrochloride) was 0.66 µM; in assay [1] (setting [11]), 0.61 µM; in [2], 3300 nM and 1200 nM; in assay [3] (Homo sapiens, PC-3, PC-3) it was 0.78 µM; in [3] (PC-3, trihydrochloride) it was 0.82 µM; in assay [4] (setting [12]), 0.97 µM. For the same compound, the IC50 turned out to be 1.1 µM in assay [4] (MDA-MB-435, trihydrochloride); 0.79 µM in [5] (setting [13]); 0.75 µM in assay [5] (MDA-MB-231, trihydrochloride); 0.66 µM in assay [6] (DU145, trihydrochloride); 0.71 µM in assay [6] (Homo sapiens, DU-145, DU145); 0.62 µM in assay [7] (A549, trihydrochloride). In addition, the IC50 in assay [7] (Homo sapiens, A549, A549) is 0.47 µM; in [8] (HT-29, trihydrochloride), 0.93 µM; in assay [8] (Homo sapiens, HT-29, HT-29), 1 µM; in [9] it was 170 nM and 370 nM and 530 nM and 400 nM; in [10] (DMS-114, trihydrochloride), 1 µM; in assay [10] (Homo sapiens, DMS-114, DMS-114), 1.4 µM.
